For 14 compounds, IC50 and Ki results are on record in ChEMBL document CHEMBL1909046, “DrugMatrix in vitro pharmacology data”.

In data set [1] the target is 5-hydroxytryptamine receptor 6 (Homo sapiens, UniProt P50406). The class given is cell membranes, HeLa, Membrane. Note: in other assays of this panel Not Active means under 50% inhibition at 10 µM.
For data set [2], the target named is T1, Polyunsaturated fatty acid lipoxygenase ALOX15 (Oryctolagus cuniculus, UniProt P12530).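 Note: inhibition of 15-lipoxygenase enzyme activity measured with linoleic acid as the substrate; in other assays of this panel Not Active means under 50% inhibition at 10 µM.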
T1 sequence (P12530 whole entry): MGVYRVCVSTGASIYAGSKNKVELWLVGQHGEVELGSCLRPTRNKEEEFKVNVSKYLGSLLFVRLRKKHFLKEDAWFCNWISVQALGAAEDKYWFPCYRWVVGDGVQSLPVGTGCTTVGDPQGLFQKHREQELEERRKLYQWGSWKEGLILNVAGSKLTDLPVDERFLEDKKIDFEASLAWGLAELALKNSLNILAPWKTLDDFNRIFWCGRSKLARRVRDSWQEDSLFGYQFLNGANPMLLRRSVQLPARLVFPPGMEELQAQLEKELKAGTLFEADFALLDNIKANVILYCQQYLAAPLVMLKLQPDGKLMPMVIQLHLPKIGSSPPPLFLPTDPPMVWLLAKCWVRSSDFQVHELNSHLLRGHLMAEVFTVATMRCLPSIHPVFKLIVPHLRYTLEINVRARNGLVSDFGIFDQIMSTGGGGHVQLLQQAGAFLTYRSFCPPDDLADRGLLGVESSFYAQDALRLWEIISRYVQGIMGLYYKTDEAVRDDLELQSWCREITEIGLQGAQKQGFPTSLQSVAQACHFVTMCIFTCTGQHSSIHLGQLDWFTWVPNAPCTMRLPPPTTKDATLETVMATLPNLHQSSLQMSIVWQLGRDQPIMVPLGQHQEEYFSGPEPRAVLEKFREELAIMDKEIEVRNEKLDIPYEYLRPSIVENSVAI
Kind of data set: biochemical. The class given is tissue-based, Reticulocytes.

The target of the next data set is T2, Progesterone receptor (Bos taurus, UniProt Q690N0).
T2 sequence (Q690N0 whole entry): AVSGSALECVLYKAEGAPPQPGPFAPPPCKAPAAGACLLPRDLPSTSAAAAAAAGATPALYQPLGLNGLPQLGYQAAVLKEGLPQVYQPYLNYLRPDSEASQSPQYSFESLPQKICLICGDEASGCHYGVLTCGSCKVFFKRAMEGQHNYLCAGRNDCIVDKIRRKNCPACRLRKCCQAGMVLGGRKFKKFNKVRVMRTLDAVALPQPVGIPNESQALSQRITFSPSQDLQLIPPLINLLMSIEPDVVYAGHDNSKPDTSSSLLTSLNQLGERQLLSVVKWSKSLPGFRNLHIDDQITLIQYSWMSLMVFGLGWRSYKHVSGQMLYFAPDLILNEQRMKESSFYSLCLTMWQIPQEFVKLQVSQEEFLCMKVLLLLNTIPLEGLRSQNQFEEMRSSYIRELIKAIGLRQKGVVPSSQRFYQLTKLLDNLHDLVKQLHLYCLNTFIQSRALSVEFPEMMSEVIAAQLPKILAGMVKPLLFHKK
Kind of data set: DRUGMATRIX: Progesterone radioligand binding (ligand: [3H] R-5020). The class given is tissue-based, Uterus. Conditions: Not Active = under 50% inhibition at 10 µM.

In another data set the target is T3, Adenosine receptor A1 (Homo sapiens, UniProt P30542).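 Note: radioligand binding assay at the adenosine A1 receptor, with DPCPX serving as the labelled ligand; in other assays of this panel Not Active means under 50% inhibition at 10 µM.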
T3 sequence (P30542 whole entry): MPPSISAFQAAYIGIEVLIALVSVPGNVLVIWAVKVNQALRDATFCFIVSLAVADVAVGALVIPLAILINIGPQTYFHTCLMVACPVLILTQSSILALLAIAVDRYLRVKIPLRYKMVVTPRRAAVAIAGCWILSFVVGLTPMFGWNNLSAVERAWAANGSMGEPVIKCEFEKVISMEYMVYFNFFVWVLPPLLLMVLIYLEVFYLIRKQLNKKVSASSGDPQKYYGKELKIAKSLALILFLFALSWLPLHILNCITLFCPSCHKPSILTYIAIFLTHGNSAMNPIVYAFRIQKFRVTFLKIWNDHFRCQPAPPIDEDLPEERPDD
The class given is cell membranes, CHO, Membrane. As to conditions: cho.

Data set [3] has as its target Voltage-gated inwardly rectifying potassium channel KCNH2 (Homo sapiens, UniProt Q12809). Conditions: hek293. Note: in other assays of this panel Not Active means under 50% inhibition at 10 µM.

A word on the IC50: it is the concentration at which inhibition is half-maximal. Usually Ki stands for the equilibrium dissociation constant of an inhibitor or competing ligand from its target.

Sequence of Voltage-gated inwardly rectifying potassium channel KCNH2 (Q12809 whole entry): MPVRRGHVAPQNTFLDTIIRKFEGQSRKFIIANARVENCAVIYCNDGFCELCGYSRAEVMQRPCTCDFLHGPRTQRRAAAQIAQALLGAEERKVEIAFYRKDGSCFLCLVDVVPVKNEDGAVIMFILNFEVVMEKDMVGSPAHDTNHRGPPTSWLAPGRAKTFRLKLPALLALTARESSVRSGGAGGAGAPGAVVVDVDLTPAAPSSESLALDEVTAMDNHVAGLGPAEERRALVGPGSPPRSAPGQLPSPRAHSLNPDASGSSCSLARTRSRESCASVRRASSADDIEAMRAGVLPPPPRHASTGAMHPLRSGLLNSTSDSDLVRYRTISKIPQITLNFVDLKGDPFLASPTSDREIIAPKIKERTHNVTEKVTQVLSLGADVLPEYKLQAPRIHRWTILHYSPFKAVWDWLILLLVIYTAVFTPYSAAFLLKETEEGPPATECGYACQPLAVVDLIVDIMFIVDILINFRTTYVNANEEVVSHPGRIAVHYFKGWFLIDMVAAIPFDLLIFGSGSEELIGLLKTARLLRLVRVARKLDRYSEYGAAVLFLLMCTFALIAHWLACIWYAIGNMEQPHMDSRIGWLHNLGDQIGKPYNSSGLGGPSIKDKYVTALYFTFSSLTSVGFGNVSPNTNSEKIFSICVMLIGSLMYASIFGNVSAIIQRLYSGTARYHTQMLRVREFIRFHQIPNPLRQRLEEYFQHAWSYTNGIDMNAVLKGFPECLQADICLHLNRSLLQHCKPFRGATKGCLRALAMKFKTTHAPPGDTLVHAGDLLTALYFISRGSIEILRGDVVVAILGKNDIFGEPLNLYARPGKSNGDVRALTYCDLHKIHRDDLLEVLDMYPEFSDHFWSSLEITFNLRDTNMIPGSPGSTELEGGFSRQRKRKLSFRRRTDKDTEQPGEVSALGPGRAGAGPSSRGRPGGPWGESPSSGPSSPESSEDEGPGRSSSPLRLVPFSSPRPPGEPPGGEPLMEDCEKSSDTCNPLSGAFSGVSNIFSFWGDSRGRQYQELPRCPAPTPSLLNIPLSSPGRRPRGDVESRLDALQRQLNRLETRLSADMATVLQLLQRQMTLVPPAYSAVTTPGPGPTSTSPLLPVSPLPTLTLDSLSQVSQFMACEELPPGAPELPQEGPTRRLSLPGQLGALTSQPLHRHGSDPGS
Sequence of 5-hydroxytryptamine receptor 6 (P50406 whole entry): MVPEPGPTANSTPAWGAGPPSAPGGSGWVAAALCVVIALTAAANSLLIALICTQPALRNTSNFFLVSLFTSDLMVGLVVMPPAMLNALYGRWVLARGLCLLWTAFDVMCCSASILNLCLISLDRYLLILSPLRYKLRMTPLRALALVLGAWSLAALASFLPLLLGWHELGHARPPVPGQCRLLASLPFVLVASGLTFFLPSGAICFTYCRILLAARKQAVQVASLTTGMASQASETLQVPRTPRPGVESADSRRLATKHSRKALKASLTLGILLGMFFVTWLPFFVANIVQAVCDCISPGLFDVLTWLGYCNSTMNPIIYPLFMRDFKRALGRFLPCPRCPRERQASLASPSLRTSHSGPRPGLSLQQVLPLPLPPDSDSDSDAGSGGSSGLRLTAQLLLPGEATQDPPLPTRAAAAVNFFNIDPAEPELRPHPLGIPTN

`CSc1ccc(/C=C2/C(C)=C(CC(=O)O)c3cc(F)ccc32)cc1` [SULINDAC SULFIDE]: the IC50 result (in data set [1] (hela); in data set [2] (reticulocytes); on Progesterone receptor; on Adenosine receptor A1; in data set [3]) was “Not Active” throughout. Also, the Ki result in data set [3] is on record as “Not Active”.
For `CC(=O)[C@@]1(O)CC[C@H]2[C@@H]3C[C@H](C)C4=CC(=O)CC[C@]4(C)[C@H]3CC[C@@]21C`, the IC50 entry is “Not Active” in data set [1] (hela); “Not Active” in data set [2] (reticulocytes); 711 nM at Progesterone receptor (read-out: IC50); “Not Active” on Adenosine receptor A1; “Not Active” in data set [3]. Further, the inhibitory constant (Ki) at Progesterone receptor (read-out: Ki) is 93 nM; in data set [3] it was “Not Active”.
Regarding `Cc1noc(NS(=O)(=O)c2ccc(N)cc2)c1C` [SULFISOXAZOLE], the IC50 entry (in data set [1] (hela); in data set [2] (reticulocytes); at Progesterone receptor; on Adenosine receptor A1; in data set [3]) was “Not Active” in each case. Further, in data set [3], the Ki result is “Not Active”.
As for `N[C@@H](Cc1ccc(O)c(O)c1)C(=O)O` [LEVODOPA], the IC50 result in data set [1] (hela) was “Not Active”; in data set [2] (read-out: IC50) it was 2260 nM; at Progesterone receptor, “Not Active”; against Adenosine receptor A1 it was “Not Active”; in data set [3], “Not Active”. Moreover, in data set [3], the inhibition constant (Ki) entry is given as “Not Active”.
Regarding `NS(=O)(=O)c1cc2c(cc1Cl)NC(C(Cl)Cl)NS2(=O)=O` (stereo not given) [TRICHLORMETHIAZIDE], the IC50 entry (in data set [1] (hela); in data set [2] (reticulocytes); at Progesterone receptor; at Adenosine receptor A1; in data set [3]) was “Not Active” in each case. For the same compound, in data set [3], the Ki entry is on record as “Not Active”.
With `Nc1c2c(nc3ccccc13)CCCC2` [TACRINE], the IC50 result (in data set [1] (hela); in data set [2] (reticulocytes); at Progesterone receptor; against Adenosine receptor A1; in data set [3]) was “Not Active” throughout. Besides, the inhibitory constant (Ki) entry in data set [3] is reported as “Not Active”.
Regarding `NC[C@H]1CC[C@H](C(=O)O)CC1` [TRANEXAMIC ACID], the IC50 entry (in data set [1] (hela); in data set [2] (reticulocytes); at Progesterone receptor; at Adenosine receptor A1; in data set [3]) was “Not Active” in each case. For the same compound, the Ki result in data set [3] is recorded as “Not Active”.
Regarding `c1ccc([C@H]2CN3CCSC3=N2)cc1` [LEVAMISOLE], the IC50 result (in data set [1] (hela); in data set [2] (reticulocytes); on Progesterone receptor; against Adenosine receptor A1; in data set [3]) was “Not Active” in each case. Besides, the Ki result in data set [3] is “Not Active”.
Regarding `CC(C)N1CCN(c2ccc(OCC3COC(Cn4cncn4)(c4ccc(Cl)cc4Cl)O3)cc2)CC1` (stereo not given) [TERCONAZOLE], the 50% inhibitory concentration (IC50) entry in data set [1] (hela) is “Not Active”; in data set [2] (read-out: IC50), 2450 nM; on Progesterone receptor it was “Not Active”; on Adenosine receptor A1, “Not Active”; in data set [3] it was “Not Active”. Further, the Ki result in data set [3] is given as “Not Active”.
Take `CC[C@@H](CO)NC(=O)[C@@H]1C=C2c3cccc4[nH]cc(c34)C[C@H]2N(C)C1` [METHYLERGONOVINE]: the IC50 is 2.54 nM in data set [1] (read-out: IC50); “Not Active” in data set [2] (reticulocytes); “Not Active” at Progesterone receptor; “Not Active” against Adenosine receptor A1; “Not Active” in data set [3]. Further, the Ki is 1.18 nM in data set [1] (read-out: Ki) and “Not Active” in data set [3].
With SODIUM NITROPRUSSIDE, the IC50 entry (in data set [1] (hela); in data set [2] (reticulocytes); on Progesterone receptor; against Adenosine receptor A1; in data set [3]) was “Not Active” throughout. Also, the Ki entry (in data set [1] (hela); in data set [2] (reticulocytes); on Progesterone receptor; on Adenosine receptor A1; in data set [3]) was “Not Active” each time.
Turning to `CO[C@H]1/C=C/O[C@@]2(C)Oc3c(C)c(O)c4c(O)c(c(/C=N/N5CCN(C)CC5)c(O)c4c3C2=O)NC(=O)/C(C)=C\C=C\[C@H](C)[C@H](O)[C@@H](C)[C@@H](O)[C@@H](C)[C@H](OC(C)=O)[C@@H]1C` [RIFAMPIN], the IC50 entry in data set [1] (hela) was “Not Active”; in data set [2] (read-out: IC50) it was 2950 nM; on Progesterone receptor, “Not Active”; on Adenosine receptor A1, “Not Active”; in data set [3], “Not Active”. In addition, in data set [3], the Ki entry was “Not Active”.
Turning to `Cc1oncc1C(=O)Nc1ccc(C(F)(F)F)cc1` [LEFLUNOMIDE], the IC50 entry (in data set [1] (hela); in data set [2] (reticulocytes); on Progesterone receptor; on Adenosine receptor A1; in data set [3]) was “Not Active” in each case. Also, the Ki result in data set [3] is “Not Active”.
Consider `N#CC(C#N)=Cc1ccc(O)c(O)c1` [TYRPHOSTIN 23], for which the IC50 result (in data set [1] (hela); in data set [2] (reticulocytes); at Progesterone receptor; against Adenosine receptor A1; in data set [3]) was “Not Active” each time. Moreover, the Ki entry in data set [3] is reported as “Not Active”.
